According to US20150098997A1, “Methods and Compositions for Treating Attention Deficit Hyperactivity Disorder, Anxiety and Insomnia Using Dexmedetomidine Transdermal Compositions” (Teikoku Pharma USA, Inc., priority 2013, published 2015):

Assay: Solubility of dexmedetomidine in adhesives and solubility enhancers
Format: physicochemical

Cc1cccc([C@H](C)c2cnc[nH]2)c1C [dexmedetomidine, Dexmedetomidine]
solubility of dexmedetomidine (in Duro-Tak 87-2979 (acid/hydroxyl functionalized acrylate adhesive)): less than 2% | solubility of dexmedetomidine (in Duro-Tak 387/87-2353 (acid functionalized acrylate adhesive)): 10-15% | solubility of dexmedetomidine (in hydroxyl functionalized acrylate polymer): less than 1% | solubility of dexmedetomidine (in lauryl lactate): 5 to 10% | solubility of dexmedetomidine (in levulinic acid): ~60% | solubility of dexmedetomidine (in oleic acid): ~40% | solubility of dexmedetomidine (in propylene glycolmonolaurate): 5 to 10%
